Here are results for nine compounds from PubChem BioAssay (NCI).

“And” between values parts separate entries of the source, which are not always exact repeats. Identical values can stand only once.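 Briefly, cells in 96-well plates were exposed to five compound concentrations for 48 h, and endpoints were estimated by linear interpolation. GI50: concentration for 50% inhibition of growth. TGI is the concentration that stops growth completely.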 Bounds are passed on as bounds.

Some test systems named below: UO-31 renal; CCRF-CEM leukemia; MOLT-4 leukemia; NCI-H226 lung; OVCAR-5 ovarian; KM12 colon; OVCAR-8 ovarian; NCI-H522 lung; HCT-116 colon; MCF7 breast.
What all share (experiment): NCI anticancer screen, dose series, 48 h

Take `Cc1c2cc[n+](Cc3ccc(I)cc3)cc2c(C)c2c1[nH]c1ccccc12`: the TGI was 15.8 µM in the assay on UO-31 renal; 9.51 µM in the assay with CCRF-CEM leukemia; 1.65 µM with MOLT-4 leukemia; 5.27 µM in the assay with NCI-H226 lung; 11.3 µM in the assay with OVCAR-5 ovarian; 1.83 µM in the assay on KM12 colon. For the same compound, the TGI in the assay on OVCAR-8 ovarian was 11.8 µM; with NCI-H522 lung, 5.59 µM; in the assay on HCT-116 colon, over 16.8 µM; in the assay with MCF7 breast, 3.06 µM.
For the compound `N#C[S-].[La+3].c1ccc(-c2ccccn2)nc1.c1ccc(-c2ccccn2)nc1.c1ccc(-c2ccccn2)nc1`, the GI50 in the assay on UO-31 renal was 10.8 µM; in the assay with MOLT-4 leukemia, 10.5 µM; in the assay on NCI-H226 lung, 19.5 µM; in the assay with OVCAR-5 ovarian, 15 µM; in the assay on KM12 colon it was 51 µM; in the assay with OVCAR-8 ovarian, 25.9 µM. Besides, the TGI was 55.9 µM in the assay on UO-31 renal; over 100 µM with MOLT-4 leukemia; 67.9 µM in the assay on NCI-H226 lung; 55.1 µM with OVCAR-5 ovarian; over 100 µM with KM12 colon; over 100 µM in the assay with OVCAR-8 ovarian.
In the case of `O=c1cc(-c2cccc(OC(F)(F)F)c2)[nH]c2ccc(N3CCCC3)cc12`, the TGI with UO-31 renal was over 100 µM; in the assay with CCRF-CEM leukemia, over 100 µM; with MOLT-4 leukemia it was 0.00157 µM; with NCI-H226 lung, 0.000657 µM; with OVCAR-5 ovarian it was over 100 µM; with KM12 colon, 0.00249 µM. The TGI is 0.177 µM and 1.76 µM in the assay with HCT-116 colon; over 100 µM with MCF7 breast. Also, in the assay on MCF7 breast, the GI50 was 0.0385 µM.
Regarding `[CH3][Sn]([CH3])([CH3])[S]C(=S)N1CCOCC1`, the GI50 in the assay on UO-31 renal is 6.24 µM; in the assay with CCRF-CEM leukemia, 0.0701 µM; in the assay on MOLT-4 leukemia it was 0.135 µM; with NCI-H226 lung, 2.72 µM; in the assay with OVCAR-5 ovarian, 2.5 µM; with KM12 colon it was 2.11 µM. Further, the GI50 in the assay on OVCAR-8 ovarian is 3.69 µM; in the assay with NCI-H522 lung, 0.102 µM; in the assay with HCT-116 colon, 0.146 µM; in the assay with MCF7 breast, 0.0342 µM. Moreover, the TGI in the assay with UO-31 renal is over 25.1 µM; in the assay on CCRF-CEM leukemia it was 1.67 µM; with MOLT-4 leukemia, 4.05 µM; in the assay with NCI-H226 lung it was 17 µM; in the assay with OVCAR-5 ovarian, over 28.2 µM; in the assay with KM12 colon it was 11.1 µM. Further, the TGI in the assay with OVCAR-8 ovarian is over 85.4 µM; with NCI-H522 lung, 0.42 µM; with HCT-116 colon it was 2.03 µM; in the assay on MCF7 breast, 0.619 µM.
In the case of `CCCCCCCCCCCC1N=C(N)N=C(N)N1c1cccc(Br)c1` (stereo not drawn), the GI50 with UO-31 renal is 4.89 µM; in the assay on OVCAR-5 ovarian, 0.811 µM; in the assay with OVCAR-8 ovarian, 1.73 µM; in the assay with NCI-H522 lung, 1.51 µM; in the assay on HCT-116 colon it was 0.216 µM. The TGI in the assay with UO-31 renal came out at 13 µM; in the assay with OVCAR-5 ovarian, 2.22 µM; in the assay on OVCAR-8 ovarian it was 3.31 µM; with NCI-H522 lung it was 2.95 µM; with HCT-116 colon it was 1.5 µM.
For `CC1OC(OC2C(O)CC(OC3C(O)CC(OC4CCC5(C)C(CCC6C5CCC5(C)C(C7=CC(=O)OC7)C(O)CC65O)C4)OC3C)OC2C)CC(O)C1O` (stereo not drawn), the TGI in the assay on UO-31 renal is 1.15 µM; with CCRF-CEM leukemia, over 100 µM; in the assay on NCI-H226 lung, 2.14 µM; in the assay with OVCAR-5 ovarian, 5.62 µM; in the assay on OVCAR-8 ovarian, 0.813 µM; in the assay on NCI-H522 lung it was 0.157 µM. In addition, the TGI in the assay with HCT-116 colon amounted to 0.576 µM.
On to `O=C(Nc1cccc(-n2ccc3c(NC(=O)c4ccccc4)ncnc32)c1)Nc1ccc(Cl)c(C(F)(F)F)c1`, for which the GI50 with UO-31 renal is 3.44 µM; with CCRF-CEM leukemia, 0.655 µM; in the assay with MOLT-4 leukemia, 1.77 µM; in the assay on NCI-H226 lung it was 5.27 µM; in the assay with OVCAR-5 ovarian it was 2.38 µM; in the assay with KM12 colon, 1.95 µM. For the same compound, the GI50 in the assay with OVCAR-8 ovarian is 1.95 µM; in the assay on NCI-H522 lung it was 1.36 µM; with HCT-116 colon, 1.85 µM; in the assay with MCF7 breast, 1.49 µM. Besides, the TGI is 10.9 µM in the assay on UO-31 renal; 9.04 µM with CCRF-CEM leukemia; 12.7 µM with MOLT-4 leukemia; 11.5 µM in the assay on NCI-H226 lung; 9.69 µM in the assay with OVCAR-5 ovarian; 8.16 µM in the assay on KM12 colon. For the same compound, the TGI with OVCAR-8 ovarian was found to be 6.67 µM; with NCI-H522 lung it was 6.31 µM; in the assay on HCT-116 colon it was 6.66 µM; with MCF7 breast, 6.14 µM.
For the compound `Brc1ccc2[nH]c3c(C4=NCCC4)nccc3c2c1`, the TGI in the assay with UO-31 renal is 37 µM; with CCRF-CEM leukemia, over 30.1 µM; in the assay on MOLT-4 leukemia, over 30.4 µM; in the assay on NCI-H226 lung, 26.4 µM; in the assay on OVCAR-5 ovarian, over 29.7 µM; with KM12 colon, over 100 µM. Further, the TGI is over 100 µM with OVCAR-8 ovarian, over 100 µM in the assay on NCI-H522 lung, over 23.2 µM in the assay with HCT-116 colon and over 47.6 µM in the assay with MCF7 breast.
As for `Oc1c(Br)cc2c(c1Br)-c1c(c(O)c3c4c1=NCCC=4C=N3)NCC2`, the TGI is 39.8 µM in the assay on UO-31 renal; 9.49 µM with CCRF-CEM leukemia; 9.79 µM in the assay with MOLT-4 leukemia; 32.8 µM in the assay with NCI-H226 lung; 40.2 µM with OVCAR-5 ovarian; 27.2 µM with KM12 colon. The TGI with OVCAR-8 ovarian was 28.5 µM; in the assay with NCI-H522 lung, 5.52 µM; in the assay on HCT-116 colon, 28.8 µM; in the assay with MCF7 breast, 22.2 µM.
